Patent US7361659B2, “Pyrrazolo-pyrimidine derivatives” (Hoffmann-La Roche Inc., priority 2005, dated 2008)

melting point [°C]	SMILES
209	O=C(Nc1cc(S(=O)(=O)NCCO)sc1Cl)c1cnn2c(C(F)F)cc(-c3ccc(C(F)(F)F)cc3)nc12 [Example 44, 7-Difluoromethyl-5-(4-trifluoromethyl-phenyl)-pyrazolo[1,5-a]pyrimidine-3-carboxylic acid [2-chloro-5-(2-hydroxy-ethylsulfamoyl)-thiophen-3-yl]-amide]
293	CN1CCN(S(=O)(=O)c2cc(NC(=O)c3cnn4c(C(F)F)cc(-c5ccc(C(F)(F)F)cc5)nc34)c(Cl)s2)CC1 [Example 73, 7-Difluoromethyl-5-(4-trifluoromethyl-phenyl)-pyrazolo[1,5-a]pyrimidine-3-carboxylic acid [2-chloro-5-(4-methyl-piperazine-1-sulfonyl)-thiophen-3-yl]-amide]
272	CC(C)(CO)NS(=O)(=O)c1cc(NC(=O)c2cnn3c(C(F)(F)F)cc(-c4ccc(Cl)cc4)nc23)c(Cl)s1 [Example 12, 5-(4-Chloro-phenyl)-7-trifluoromethyl-pyrazolo[1,5-a]pyrimidine-3-carboxylic acid [2-chloro-5-(2-hydroxy-1,1-dimethyl-ethylsulfamoyl)-thiophen-3-yl]-amide]
280	NS(=O)(=O)c1nnc(NC(=O)c2cnn3c(C(F)(F)F)cc(-c4ccc(C(F)(F)F)cc4)nc23)s1 [Example 4, 7-Trifluoromethyl-5-(4-trifluoromethyl-phenyl)-pyrazolo[1,5-a]pyrimidine-3-carboxylic acid (5-sulfamoyl-[1,3,4]thiadiazol-2-yl)-amide]
198	CN(C)CCNS(=O)(=O)c1cc(NC(=O)c2cnn3c(C(F)(F)F)cc(-c4ccc(C(F)(F)F)cc4)nc23)c(Cl)s1 [Example 55, 7-Trifluoromethyl-5-(4-trifluoromethyl-phenyl)-pyrazolo[1,5-a]pyrimidine-3-carboxylic acid [2-chloro-5-(2-dimethylamino-ethylsulfamoyl)-thiophen-3-yl]-amide]
214	Cc1nc(NC(=O)c2cnn3c(C(F)(F)F)cc(-c4ccc(C(F)(F)F)cc4)nc23)sc1S(=O)(=O)N(CCO)CCO [Example 41, 7-Trifluoromethyl-5-(4-trifluoromethyl-phenyl)-pyrazolo[1,5-a]pyrimidine-3-carboxylic acid {5-[bis-(2-hydroxy-ethyl)-sulfamoyl]-4-methyl-thiazol-2-yl}-amide]
250	CCOc1cc(-c2cc(C(F)(F)F)n3ncc(C(=O)Nc4cc(S(=O)(=O)NCCO)sc4Cl)c3n2)ccc1C(F)(F)F [Example 56, 5-(3-Ethoxy-4-trifluoromethyl-phenyl)-7-trifluoromethyl-pyrazolo[1,5-a]pyrimidine-3-carboxylic acid [2-chloro-5-(2-hydroxy-ethylsulfamoyl)-thiophen-3-yl]-amide]
274	O=C(Nc1cc(S(=O)(=O)N2CCC(O)C2)sc1Cl)c1cnn2c(C(F)F)cc(-c3ccc(C(F)(F)F)cc3)nc12 (racemic) [Example 66, 7-Difluoromethyl-5-(4-trifluoromethyl-phenyl)-pyrazolo[1,5-a]pyrimidine-3-carboxylic acid [(RS)-2-chloro-5-(3-hydroxy-pyrrolidine-1-sulfonyl)-thiophen-3-yl]-amide]
217	Cc1nc(NC(=O)c2cnn3c(C(F)F)cc(-c4ccc(C(F)(F)F)cc4)nc23)sc1S(=O)(=O)NC(CO)CO [Example 63, 7-Difluoromethyl-5-(4-trifluoromethyl-phenyl)-pyrazolo[1,5-a]pyrimidine-3-carboxylic acid [5-(2-hydroxy-1-hydroxymethyl-ethylsulfamoyl)-4-methyl-thiazol-2-yl]-amide]
191	Cc1nc(NC(=O)c2cnn3c(C(F)F)cc(-c4ccc(C(F)(F)F)cc4)nc23)sc1S(=O)(=O)N(CCO)CCO [Example 40, 7-Difluoromethyl-5-(4-trifluoromethyl-phenyl)-pyrazolo[1,5-a]pyrimidine-3-carboxylic acid {5-[bis-(2-hydroxy-ethyl)-sulfamoyl]-4-methyl-thiazol-2-yl}-amide]
269	Cc1nc(NC(=O)c2cnn3c(C(F)F)cc(-c4ccc(C(F)(F)F)cc4)nc23)sc1S(=O)(=O)N1CCN(C)CC1 [Example 68, 7-Difluoromethyl-5-(4-trifluoromethyl-phenyl)-pyrazolo[1,5-a]pyrimidine-3-carboxylic acid [4-methyl-5-(4-methyl-piperazine-1-sulfonyl)-thiazol-2-yl]-amide]
273	Cc1nc(NC(=O)c2cnn3c(C(F)(F)F)cc(-c4ccc(C(F)(F)F)cc4)nc23)sc1S(=O)(=O)N1CCN(C)CC1 [Example 69, 7-Trifluoromethyl-5-(4-trifluoromethyl-phenyl)-pyrazolo[1,5-a]pyrimidine-3-carboxylic acid [4-methyl-5-(4-methyl-piperazine-1-sulfonyl)-thiazol-2-yl]-amide]
276	CCOc1cc(-c2cc(C(F)(F)F)n3ncc(C(=O)Nc4nc(C)c(S(=O)(=O)NC(C)(C)CO)s4)c3n2)ccc1C(F)(F)F [Example 23, 5-(3-Ethoxy-4-trifluoromethyl-phenyl)-7-trifluoromethyl-pyrazolo[1,5-a]pyrimidine-3-carboxylic acid [5-(2-hydroxy-1,1-dimethyl-ethylsulfamoyl)-4-methyl-thiazol-2-yl]-amide]
217	Cc1nc(NC(=O)c2cnn3c(C(F)F)cc(-c4ccc(C(F)(F)F)cc4)nc23)sc1S(=O)(=O)NCCN(C)C [Example 57, 7-Difluoromethyl-5-(4-trifluoromethyl-phenyl)-pyrazolo[1,5-a]pyrimidine-3-carboxylic acid [5-(2-dimethylamino-ethylsulfamoyl)-4-methyl-thiazol-2-yl]-amide]
270	O=C(Nc1cc(S(=O)(=O)N2CCC(O)C2)sc1Cl)c1cnn2c(C(F)(F)F)cc(-c3ccc(C(F)(F)F)cc3)nc12 (racemic) [Example 67, 7-Trifluoromethyl-5-(4-trifluoromethyl-phenyl)-pyrazolo[1,5-a]pyrimidine-3-carboxylic acid [(RS)-2-chloro-5-(3-hydroxy-pyrrolidine-1-sulfonyl)-thiophen-3-yl]-amide]
307	Cc1nc(NC(=O)c2cnn3c(C(F)(F)F)cc(-c4ccc(Cl)c(Cl)c4)nc23)sc1S(N)(=O)=O [Example 26, 5-(3,4-Dichloro-phenyl)-7-trifluoromethyl-pyrazolo[1,5-a]pyrimidine-3-carboxylic acid (4-methyl-5-sulfamoyl-thiazol-2-yl)-amide]
329	NS(=O)(=O)c1cc(NC(=O)c2cnn3c(C(F)(F)F)cc(-c4ccc(Cl)cc4)nc23)c(Cl)s1 [Example 9, 5-(4-Chloro-phenyl)-7-trifluoromethyl-pyrazolo[1,5-a]pyrimidine-3-carboxylic acid (2-chloro-5-sulfamoyl-thiophen-3-yl)-amide]
292	CC(C)(CO)NS(=O)(=O)c1cnc(NC(=O)c2cnn3c(C(F)(F)F)cc(-c4ccc(C(F)(F)F)cc4)nc23)s1 [Example 59, 7-Trifluoromethyl-5-(4-trifluoromethyl-phenyl)-pyrazolo[1,5-a]pyrimidine-3-carboxylic acid [5-(2-hydroxy-1,1-dimethyl-ethylsulfamoyl)-thiazol-2-yl]-amide]
225	O=C(Nc1cc(S(=O)(=O)NC(CO)CO)sc1Cl)c1cnn2c(C(F)(F)F)cc(-c3ccc(C(F)(F)F)cc3)nc12 [Example 29, 7-Trifluoromethyl-5-(4-trifluoromethyl-phenyl)-pyrazolo[1,5-a]pyrimidine-3-carboxylic acid [2-chloro-5-(2-hydroxy-1-hydroxymethyl-ethylsulfamoyl)-thiophen-3-yl]-amide]
307	Cc1cc(-c2cc(C(F)F)n3ncc(C(=O)Nc4nc(C)c(S(N)(=O)=O)s4)c3n2)ccc1C(F)(F)F [Example 33, 7-Difluoromethyl-5-(3-methyl-4-trifluoromethyl-phenyl)-pyrazolo[1,5-a]pyrimidine-3-carboxylic acid (4-methyl-5-sulfamoyl-thiazol-2-yl)-amide]
237	CC(CO)(CO)NS(=O)(=O)c1cc(NC(=O)c2cnn3c(C(F)F)cc(-c4ccc(C(F)(F)F)cc4)nc23)c(Cl)s1 [Example 37, 7-Difluoromethyl-5-(4-trifluoromethyl-phenyl)-pyrazolo[1,5-a]pyrimidine-3-carboxylic acid [2-chloro-5-(2-hydroxy-1-hydroxymethyl-1-methyl-ethylsulfamoyl)-thiophen-3-yl]-amide]
201	CC(CO)(CO)NS(=O)(=O)c1cc(NC(=O)c2cnn3c(C(F)(F)F)cc(-c4ccc(C(F)(F)F)cc4)nc23)c(Cl)s1 [Example 38, 7-Trifluoromethyl-5-(4-trifluoromethyl-phenyl)-pyrazolo[1,5-a]pyrimidine-3-carboxylic acid [2-chloro-5-(2-hydroxy-1-hydroxymethyl-1-methyl-ethylsulfamoyl)-thiophen-3-yl]-amide]
134	Cc1nc(NC(=O)c2cnn3c(C(F)F)cc(-c4ccc(C(F)(F)F)cc4)nc23)sc1S(=O)(=O)NCCO [Example 45, 7-Difluoromethyl-5-(4-trifluoromethyl-phenyl)-pyrazolo[1,5-a]pyrimidine-3-carboxylic acid [5-(2-hydroxy-ethylsulfamoyl)-4-methyl-thiazol-2-yl]-amide]
281	CCOc1cc(-c2cc(C(F)(F)F)n3ncc(C(=O)Nc4cc(S(N)(=O)=O)sc4Cl)c3n2)ccc1C(F)(F)F [Example 10, 5-(3-Ethoxy-4-trifluoromethyl-phenyl)-7-trifluoromethyl-pyrazolo[1,5-a]pyrimidine-3-carboxylic acid (2-chloro-5-sulfamoyl-thiophen-3-yl)-amide]
264	Cc1nc(NC(=O)c2cnn3c(C(F)(F)F)cc(-c4ccc(C(F)(F)F)c(OCC(F)(F)F)c4)nc23)sc1S(N)(=O)=O [Example 27, 5-[3-(2,2,2-Trifluoro-ethoxy)-4-trifluoromethyl-phenyl]-7-trifluoromethyl-pyrazolo[1,5-a]pyrimidine-3-carboxylic acid (4-methyl-5-sulfamoyl-thiazol-2-yl)-amide]
